This is an account of results in patent US10525101B2, “Methods of treating inflammatory or autoimmune disorders with compounds that bind macrophage migration inhibitory factor” (Oregon Health & Science University, priority 2015, dated 2020).

Ends that are not written are not given here.

One experiment concerns DRα1mMOG-35-55. The experiment is described as follows: Competition ELISA: peptides competing with rmCD74 for binding to plate-coated DRα1mMOG-35-55. Conditions: for competition with CD74 for binding to DRα1-mMOG-35-55 (in words): FIG. 3A, FIGS. 4A/4B; for IC50: FIGS. 4A and 4B, peptides combined or alone, read-out: IC50 for blocking rmCD74 binding to DRα1mMOG-35-55; for LogIC50 vs DRα1mMOG-35-55 / IC50 vs DRα1mMOG-35-55: Table 1, from FIG. 3A, one-binding site fit; for IC50 vs DRα1mMOG-35-55: rmCD74 50 nM. Here is the method:
(§1) Competition of peptides with rmCD74 for binding to RTL1000 or DRα1mMOG35-55 was also tested. Briefly, 50 μl of 1 μg/ml either RTL1000 or DRα1mMOG-35-55 were coated onto ELISA plates at 25° C. for 2 hours. Each well was washed 4 times with 300 μl of PBS/0.0125% Tween 20 (PBS/T20) to remove excess of protein and then blocked with 5% BSA/PBS at pH 7.4 (BSA/PBS) for 2 hours at the same temperature. Serial 1:2 dilutions of α-helix 1 or α-helix 2 (starting with a concentration of 66 μM, 50 μg/ml each) were prepared in rmCD74 (in BSA/PBS, 50 nM, 0.5 ug/ml) and added to the plate. Competition for the binding site was allowed for 3 hours at 25° C. and then unbound complexes were washed 4 times with PBS/T20. Remaining rmCD74 bound to RTL1000 or DRα1mMOG-35-55 was detected by the PIN.1/anti-mouse IgG1-HRP at 1 ul/ml of both in BSA/PBS for 1.5 hours at 25° C. and visualized by adding TMB substrate (50 μl, according to the manufacturer's instructions). Color development was stopped with 0.1N HCl and the plate was read at 450 nm in an ELISA plate reader. Data were normalized and fitted to a one-binding site model and competitor concentration was plotted against Absorbance at 450 nm to determine the IC50 of each peptide competitor. All data were analyzed using Prism software (GraphPad).
(In general: An ELISA detects its analyte on a solid surface through an enzyme-linked reagent.)

For a further experiment, the system named is RTL1000. The experiment is described as follows: Competition ELISA: peptides competing with rmCD74 for binding to plate-coated RTL1000. The following applies: for competition with CD74 for binding to RTL1000 (in words): FIG. 3A; for LogIC50 vs RTL 1000 / IC50 vs RTL 1000: Table 1, from FIG. 3A, one-binding site fit; for IC50 vs RTL 1000: rmCD74 50 nM, in µM. The procedure:
as §1

The next experiment concerns the target T1, human MIF (hMIF) (Homo sapiens, UniProt P14174).
T1 sequence (P14174 2-115 limits assumed): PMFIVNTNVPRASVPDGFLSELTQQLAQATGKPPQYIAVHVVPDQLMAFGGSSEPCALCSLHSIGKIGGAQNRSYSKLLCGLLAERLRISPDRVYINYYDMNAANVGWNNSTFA
The experiment is described as follows: Competition ELISA: peptides blocking rmCD74 binding to plate-coated hMIF. The following applies: FIG. 2A/2B. Here is the method:
The ability of α-helix 1 and α-helix 2 peptides to compete with MIF for binding to CD74 was tested. Briefly, 50 μl of hMIF at a concentration of 0.5 μg/ml in PBS was coated onto ELISA plates for 2 hours at RT, washed 4 times with […] of PBS/0.0125% T20, blocked with 300 μl of 5% BSA in PBS, pH 7.4 for 2 hours at room temperature, and then a mixture of rmCD74 (constant concentration of 0.5 μg/ml) and competitor (SEQ ID NO: 2, SEQ ID NO: 4) at an initial concentration of 66 μM (33 μM each, mixed or 66 μM each, separately) in 5% BSA/PBS was added to the wells for 3 hours at room temperature to allow binding. Wells were thoroughly washed with PBS/T20 and the mAb PIN.1/anti-mIgG1-HRP (at 0.5 μg/ml in 5% BSA/PBS each) was used to detect the remaining rmCD74 bound to MIF. This mAb recognizes an epitope located at the N-terminus of the protein. Color was developed after adding 50 μl of TMB for 5 minutes and the reaction was stopped with 50 μl of 0.1N HCl. Data was first normalized and then analyzed using GraphPad Prism software. IC50 were calculated by fitting the curve to a competition model involving a two-binding site equation.

The test system of experiment [1] is experimental autoimmune encephalomyelitis (EAE). The following applies: mice with EAE, treated after onset of clinical signs; cited from earlier work.

For KGSFPENLRHLKNTMET [α-helix 2], in the experiment on DRα1mMOG-35-55, the “competition with CD74 for binding to DRα1-mMOG-35-55 (in words)” value (shortened to “competition … to DRα1-mMOG-35-55 (in words)”) was “did not have a significant effect”, the IC50 came to 24.5 µM, the “LogIC50 vs DRα1mMOG-35-55” value turned out to be 2.222 and the “IC50 vs DRα1mMOG-35-55” value amounted to 166.6. The “competition … to DRα1-mMOG-35-55 (in words)” value in the experiment on DRα1mMOG-35-55 (listed as SEQ ID NO: 4) is on record as “competes to a lesser extent”. Further, in the experiment with RTL1000, the “competition with CD74 for binding to RTL1000 (in words)” value is “competes to a lesser extent”, the “LogIC50 vs RTL 1000” value came out at 1.535 and the “IC50 vs RTL 1000” value was determined as 34.27. For the same molecule, the “blocking of rmCD74 binding to human MIF (in words)” value (“blocking of rmCD74 binding” for short) at human MIF (hMIF) is recorded as “to a lesser extent”.

As to TEDHVMHLLQNAD [α-helix 1], in the experiment on DRα1mMOG-35-55, the “competition … to DRα1-mMOG-35-55 (in words)” value is listed as “able to outcompete”, the IC50 is 35 µM, the “LogIC50 vs DRα1mMOG-35-55” value was found to be 1.002 and the “IC50 vs DRα1mMOG-35-55” value turned out to be 10.05. In the experiment with RTL1000, the “competition with CD74 for binding to RTL1000 (in words)” value was “able to outcompete”, the “LogIC50 vs RTL 1000” value came to 0.8309 and the “IC50 vs RTL 1000” value is reported as 6.775. The “blocking of rmCD74 binding” value on human MIF (hMIF) was “blocks CD74 binding to hMIF”. For the same molecule, the “blocking of rmCD74 binding” value at human MIF (hMIF) (listed as SEQ ID NO: 2) was “able to block”.

B1: DRα1-MOG-35-55: second generation derivative of RTL1000, partial MHC molecule DRα1 construct that binds CD74 (protein)
chain: MEVGWYRSPFSRVVHLYRNGKGGGGSLVPRGSGGGGIKEEHVIIQAEFYLNPDQSGEFMFDFDGDEIFHVDMAKKETVWRLEEFGRFASFEAQGALANIAVDKANLEIMTKRSNYTPITN
Consider B1, for which the “effect on EAE (in words)” value in experiment [1] was “reduced disease severity”.

A word on the IC50: it is the point on the concentration scale where inhibition reaches its midpoint.
